Source: patent publication US6008372A, “Substituted dinaphthylmethyl and diheteroarylmethylacetyl histidine inhibitors of protein farnesyltransferase” (Warner-Lambert Company, priority 1998, dated 1999)
Where a name gives a salt, the structure may show the parent alone. Read-outs that look alike come from different tables or passages of the source.

Target: T1, rat brain farnesyl protein transferase (Rattus norvegicus, UniProt Q02293+Q04631)
T1 construct: 40-fold purified rat brain farnesyl protein transferase; from tissue; host or cells: rat brain
Test: Protein:farnesyltransferase (PFT/FPT) inhibitory activity assay
Type: biochemical

[1] = Hepes (without 5 mM phosphate), read-out: Farnesyl Protein Transferase Inhibition, Hepes, IC50
[2] = Hepes/5 mM PO4^-3, pH 7.4, read-out: Farnesyl Protein Transferase Inhibition, Hepes/5 mM PO4^-3, IC50

SMILES: O=C(N[C@@H](Cc1c[nH]cn1)C(=O)OCc1ccsc1)C(Cc1cccc2ccccc12)Cc1cccc2ccccc12 [Example 20, (S)-3-(1H-Imidazol-4-yl)-2-(3-naphthalen-1-yl-2-naphthalen-1-ylmethyl-propionylamino)-propionic acid, thiophen-3-ylmethyl ester]
- IC50 [1]: 3500 nM
- IC50 [2]: 2400 nM

SMILES: COC(=O)COC(=O)[C@H](Cc1c[nH]cn1)NC(=O)C(Cc1cccc2ccccc12)Cc1cccc2ccccc12 [Example 57, (S)-3-(1H-Imidazol-4-yl)-2-(3-naphthalen-1-yl-2-naphthalen-1-ylmethyl-propionylamino)-propionic acid, methoxycarbonylmethyl ester]
- IC50 [1]: 5500 nM
- IC50 [2]: 4100 nM

SMILES: COC(=O)[C@@H](Cc1c[nH]cn1)NC(=O)C(Cc1cccc2ccccc12)Cc1cccc2ccccc12 [Example 2, (R)-3-(1H-Imidazol-4-yl)-2-(3-naphthalen-1-yl-2-naphthalen-1-ylmethyl-propionylamino)-propionic acid, methyl ester]
- IC50 [1]: 12000 nM
- IC50 [2]: 10000 nM

SMILES: CNC(=O)[C@H](Cc1c[nH]cn1)NCC(Cc1cccc2ccccc12)Cc1cccc2ccccc12 [Example 63, (S)-3-(1H-Imidazol-4-yl)-N-methyl-2-(3-naphthalen-1-yl-2-naphthalen-1-ylmethyl-propylamino)-propionamide]
- IC50 [1]: 200 nM
- IC50 [2]: 240 nM

SMILES: CCSCCNC(=O)[C@H](Cc1c[nH]cn1)NC(=O)C(Cc1cccc2ccccc12)Cc1cccc2ccccc12 [Example 26, (S)-N-[1-(2-Ethylsulfanyl-ethylcarbamoyl)-2-(1H-imidazol-4-yl)-ethyl]-3-naphthalen-1-yl-2-naphthalen-1-ylmethyl-propionamide]
- IC50 [1]: 12000 nM
- IC50 [2]: 8700 nM

SMILES: CC(C)NC(=O)[C@H](Cc1c[nH]cn1)NC(=O)C(Cc1cccc2ccccc12)Cc1cccc2ccccc12 [Example 30, (S)-N-[2-(1H-Imidazol-4-yl)-1-isopropylcarbamoyl-ethyl]-3-naphthalen-1-yl-2-naphthalen-1-ylmethyl-propionamide]
- IC50 [1]: 4600 nM
- IC50 [2]: 3500 nM

SMILES: C#CCCOC(=O)[C@H](Cc1c[nH]cn1)NC(=O)C(Cc1cccc2ccccc12)Cc1cccc2ccccc12 [Example 44, (S)-3-(1H-Imidazol-4-yl)-2-(3-naphthalen-1-yl-2-naphthalen-1-ylmethyl-propionylamino)-propionic acid, but-3-ynyl ester, trifluoroacetate salt]
- IC50 [1]: 230 nM
- IC50 [2]: 210 nM

SMILES: N#CCOC(=O)[C@H](Cc1c[nH]cn1)NC(=O)C(Cc1cccc2ccccc12)Cc1cccc2ccccc12 [Example 58, (S )-3-(1H-Imidazol-4-yl)-2-(3-naphthalen-1-yl-2-naphthalen-1-ylmethyl-propionylamino)-propionic acid, cyanomethyl ester]
- IC50 [1]: 400 nM
- IC50 [2]: 510 nM

SMILES: O=C(N[C@@H](Cc1c[nH]cn1)C(=O)NCCCn1ccnc1)C(Cc1cccc2ccccc12)Cc1cccc2ccccc12 [Example 28]
- IC50 [1]: 8100 nM
- IC50 [2]: 4200 nM

SMILES: O=C(N[C@@H](Cc1c[nH]cn1)C(=O)OCCN1CCOCC1)C(Cc1cccc2ccccc12)Cc1cccc2ccccc12 [Example 22, (S)-3-(1H-Imidazol-4-yl)-2-(3-naphthalen-1-yl-2-naphthalen-1-ylmethyl-propionylamino)-propionic acid, 2-morpholin-4-yl-ethyl ester]
- IC50 [1]: 5800 nM
- IC50 [2]: 4300 nM

SMILES: C=CCCOC(=O)[C@H](Cc1c[nH]cn1)NC(=O)C(Cc1cccc2ccccc12)Cc1cccc2ccccc12 [Example 48, (S)-3-(1H-Imidazol-4-yl)-2-(3-naphthalen-1-yl-2-naphthalen-1-ylmethyl-propionylamino)-propionic acid, but-3-enyl ester]
- IC50 [1]: 1200 nM
- IC50 [2]: 1300 nM

SMILES: O=C(N[C@@H](Cc1c[nH]cn1)C(=O)OCc1ccccc1)C(Cc1cccc2ccccc12)Cc1cccc2ccccc12 [Example 10, (S)-3-(1H-Imidazol-4-yl)-2-(3-naphthalen-1-yl-2-naphthalen-1-ylmethyl-propionylamino)-propionic acid, benzyl ester]
- IC50 [1]: 4200 nM
- IC50 [2]: 2900 nM

SMILES: CCCCOC(=O)[C@H](Cc1c[nH]cn1)NC(=O)C(Cc1cccc2ccccc12)Cc1cccc2ccccc12 [Example 9, (S)-3-(1H-Imidazol-4-yl)-2-(3-naphthalen-1-yl-2-naphthalen-1-ylmethyl-propionylamino)-propionic acid, butyl ester]
- IC50 [1]: 1300 nM
- IC50 [2]: 1100 nM

SMILES: COC(=O)[C@H](Cc1c[nH]cn1)NC(=O)C(Cc1csc2ccccc12)Cc1csc2ccccc12 [Example 39, (S)-2-(3-Benzo[b]thiophen-3-yl-2-benzo[b]thiophen-3-ylmethyl-propionylamino)-3-(1H-imidazol-4-yl)-propionic acid, methyl ester]
- IC50 [1]: 1200 nM
- IC50 [2]: 970 nM

SMILES: CC(C)=CCOC(=O)[C@H](Cc1c[nH]cn1)NC(=O)C(Cc1cccc2ccccc12)Cc1cccc2ccccc12 [Example 55, (S)-3-(1H-Imidazol-4-yl)-2-(3-naphthalen-1-yl-2-naphthalen-1-ylmethyl-propionylamino)-propionic acid 3-methyl-but-2-enyl ester]
- IC50 [1]: 5300 nM
- IC50 [2]: 4300 nM

SMILES: O=C(N[C@@H](Cc1c[nH]cn1)C(=O)O)C(Cc1cccc2ccccc12)Cc1cccc2ccccc12 [Example 3, (S)-3-(1H-Imidazol-4-yl)-2-(3-naphthalen-1-yl-2-naphthalen-1-ylmethyl-propionylamino)-propionic acid]
- IC50 [1]: 1000 nM
- IC50 [2]: 2300 nM

SMILES: O=C(N[C@@H](Cc1c[nH]cn1)C(=O)OC1CCCCC1)C(Cc1cccc2ccccc12)Cc1cccc2ccccc12 [Example 11, (S)-3-(1H-Imidazol-4-yl)-2-(3-naphthalen-1-yl-2-naphthalen-1-ylmethyl-propionylamino)-propionic acid, cyclohexyl ester]
- IC50 [1]: 20000 nM
- IC50 [2]: 14000 nM

SMILES: CN(C)C(=O)[C@H](Cc1c[nH]cn1)NC(=O)C(Cc1cccc2ccccc12)Cc1cccc2ccccc12 [Example 43, (S)-N-[1-Dimethylcarbamoyl-2-(1H-imidazol-4-yl)-ethyl]-3-naphthalen-1-yl-2-naphthalen-1-ylmethyl-propionamide]
- IC50 [1]: 5600 nM
- IC50 [2]: 3800 nM

SMILES: O=C(N[C@@H](Cc1c[nH]cn1)C(=O)NCCO)C(Cc1cccc2ccccc12)Cc1cccc2ccccc12 [Example 29, (S)-N-[1-(2-Hydroxy-ethylcarbamoyl)-2-(1H-imidazol-4-yl)-ethyl]-3-naphthalen-1-yl-2-naphthalen-1-ylmethyl-propionamide]
- IC50 [1]: 3200 nM
- IC50 [2]: 3700 nM

SMILES: N#CCCCOC(=O)[C@H](Cc1c[nH]cn1)NC(=O)C(Cc1cccc2ccccc12)Cc1cccc2ccccc12 [Example 54, (S)-3-(1H-Imidazol-4-yl)-2-(3-naphthalen-1-yl-2-naphthalen-1-ylmethyl-propionyiamino)-propionic acid, 3-cyano-propyl ester]
- IC50 [1]: 440 nM
- IC50 [2]: 370 nM

SMILES: C#CCOC(=O)[C@H](Cc1c[nH]cn1)NC(=O)C(Cc1cccc2ccccc12)Cc1cccc2ccccc12 [Example 16, (S)-3-(1H-Imidazol-4-yl)-2-(3-naphthalen-1-yl-2-naphthalen-1-ylmethyl-propionylamino)-propionic acid, prop-2-ynyl ester]
- IC50 [1]: 500 nM
- IC50 [2]: 590 nM

SMILES: NC(=O)[C@H](Cc1c[nH]cn1)NC(=O)C(Cc1cccc2ccccc12)Cc1cccc2ccccc12 [Example 24, (S)-N-[1-Carbamoyl-2-(1H-imidazol-4-yl)-ethyl]-3-naphthalen-1-yl-2-naphthalen-1-ylmethyl-propionamide]
- IC50 [1]: 5300 nM
- IC50 [2]: 3800 nM

SMILES: O=C(N[C@@H](Cc1c[nH]cn1)C(=O)NCCc1ccccc1)C(Cc1cccc2ccccc12)Cc1cccc2ccccc12 [Example 50]
- IC50 [1]: 4800 nM
- IC50 [2]: 6000 nM

SMILES: CCN(CC)CCOC(=O)[C@H](Cc1c[nH]cn1)NC(=O)C(Cc1cccc2ccccc12)Cc1cccc2ccccc12 [Example 21, (S)-3-(1H-Imidazol-4-yl)-2-(3-naphthalen-1-yl-2-naphthalen-1-ylmethyl-propionylamino)-propionic acid, 2-diethylamino-ethyl ester]
- IC50 [1]: 21000 nM
- IC50 [2]: 9000 nM

SMILES: O=C(N[C@@H](Cc1c[nH]cn1)C(=O)OCCO)C(Cc1cccc2ccccc12)Cc1cccc2ccccc12 [Example 42, (S)-3-(1H-Imidazol-4-yl)-2-(3-naphthalen-1-yl-2-naphthalen-1-ylmethyl-propionylamino)-propionic acid, 2-hydroxy-ethyl ester, trifluoroacetate salt]
- IC50 [1]: 1800 nM
- IC50 [2]: 1300 nM

SMILES: O=C(N[C@@H](Cc1c[nH]cn1)C(=O)NCCOCc1ccccc1)C(Cc1cccc2c1CCCC2)Cc1cccc2c1CCCC2 [Example 38, (S)-N-[1-(2-Benzyloxy-ethylcarbamoyl)-2-(1H-imidazol-4-yl)-ethyl]-3-(5,6,7,8-tetrahydro-naphthalen-1-yl)-2-(5,6,7,8-tetrahydro-naphthalen-1-ylmethyl)-propionamide]
- IC50 [1]: 780 nM
- IC50 [2]: 850 nM

SMILES: O=C(N[C@@H](Cc1c[nH]cn1)C(=O)OCCc1cccs1)C(Cc1cccc2ccccc12)Cc1cccc2ccccc12 [Example 19, (S)-3-(1H-Imidazol-4-yl)-2-(3-naphthalen-1-yl-2-naphthalen-1-ylmethyl-propionylamino)-propionic acid, 2-thiophen-2-yl-ethyl ester]
- IC50 [1]: 1100 nM
- IC50 [2]: 1100 nM

SMILES: O=C(N[C@@H](Cc1c[nH]cn1)C(=O)OCCSSCCO)C(Cc1cccc2ccccc12)Cc1cccc2ccccc12 [Example 59, (S)-3-(1H-Imidazol-4-yl)-2-(3-naphthalen-1-yl-2-naphthalen-1-ylmethyl-propionylamino)-propionic acid, 2-(2-hydroxy-ethyldisulfanyl)-ethyl ester]
- IC50 [1]: 1300 nM
- IC50 [2]: 1000 nM

SMILES: O=C(N[C@@H](Cc1c[nH]cn1)C(=O)OCCn1ccnc1)C(Cc1cccc2ccccc12)Cc1cccc2ccccc12 [Example 47, (S)-3-[1H-Imidazol-4-yl)-2-(3-naphthalen-1-yl-2-naphthalen-1-ylmethyl-propionylamino)-propionic acid, 2-imidazol-1-yl-ethyl ester]
- IC50 [1]: 1100 nM
- IC50 [2]: 1400 nM
